According to the supplement of paper PMC11208160:

Test: recombinant UMI read abundance after kanamycin selection (control-corrected) (log10(CPM+1)); higher = more efficient recombination; extreme values may be limits of the assay; sequences stand for … in AGTGCAGAGAAAATCGGCCAGTTTTCTCTGCCTGCAGTCCGCATGCCGTGGGACCCCTTGGGTTCTAACCTGTTGCCTAGATTTATGCAGCGGACTGCCTTTCTCCCAAAGTGATAAACCGG…AGGTTGGTTTCACT; site = the 11-nt donor
Method in brief: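 The measure is log10(CPM+1) for recombinant UMIs. These were PCR-amplified across the donor–target junction and sequenced after Escherichia coli carrying a donor and donor-binding-loop pair library and a target plasmid with T7-inducible IS621 bridge recombinase was plated on IPTG (0.07 mM) plus kanamycin or unselected. CPM were averaged over two replicates and scaled by control-derived factors.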
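Further: IS621 bridge recombinase in Escherichia coli cells against a fixed T5 target plasmid.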

Sequence | recombinant UMI read abundance (log10)
CACTTCGCATGGACCGGTTTTCCCGGTAATCCGTATTTGGA (site CACTTAGCTTC) | 0.0127
CAATCTGCATGGACCGGTTTTCCCGGTAATCCGTATTTGCT (site CAATCTGCTAG) | 0.515
CGGACCTCATGGACCGGTTTTCCCGGTAATCCGTATTTGCT (site CGGACTTCTAG) | 0
GTAGTATCATGGACCGGTTTTCCCGGTAATCCGTATTTGAT (site CTAGTATCTGT) | 1.05
CTGCTACCATGGACCGGTTTTCCCGGTAATCCGTATTTGCT (site CTGCTAGCTAG) | 0
ATGTAGGCATGGACCGGTTTTCCCGGTAATCCGTATTTGGC (site ATGTCGGCTGC) | 0.474
TGTTCCCCATGGACCGGTTTTCCCGGTAATCCGTATTTGTA (site TGTTCCTCTTA) | 0.105
TCACAGACATGGACCGGTTTTCCCGGTAATCCGTATTTGCG (site TCAAAGACTCG) | 0.308
GTTTATCCATGGACCGGTTTTCCCGGTAATCCGTATTTGCT (site GTTTATCCTAG) | 0.492
GATTGGACATGGACCGGTTTTCCCGGTAATCCGTATTTGGC (site GATTGGACTGC) | 1.65
AATAAGACATGGACCGGTTTTCCCGGTAATCCGTATTTGCA (site AGGAAGACTTG) | 1.4
CAAGCACCATGGACCGGTTTTCCCGGTAATCCGTATTTGCT (site CAAGCACCTAG) | 0.47
TAAGTATCATGGACCGGTTTTCCCGGTAATCCGTATTTGAC (site TAAGTATCTGT) | 3.03
AGGACGACATGGACCGGTTTTCCCGGTAATCCGTATTTGAC (site AGGACGACTGT) | 3.14
CTACTAACATGGACCGGTTTTCCCGGTAATCCGTATTTGTA (site CTACTAACTTG) | 1.51
CTCGGCCCATGGACCGGTTTTCCCGGTAATCCGTATTTGTT (site CTCGGCCCTAA) | 0.0107
ATTCTCTCATGGACCGGTTTTCCCGGTAATCCGTATTTGTA (site TTTCTCTCTTA) | 1.58
TAGCGCTCATGGACCGGTTTTCCCGGTAATCCGTATTTGCA (site TAGCGCTCTTG) | 2.33
TGGCCGCCATGGACCGGTTTTCCCGGTAATCCGTATTTGGC (site TGGCCGCCTGC) | 0
TAGAATACATGGACCGGTTTTCCCGGTAATCCGTATTTGTA (site TAGAATACTTA) | 1.55
ACAGTATCATGGACCGGTTTTCCCGGTAATCCGTATTTGAC (site CTAGTATCTGT) | 1.64
GAATGGTCATGGACCGGTTTTCCCGGTAATCCGTATTTGCA (site GAATGGACTTG) | 0.0076
AGCTTAGCATGGACCGGTTTTCCCGGTAATCCGTATTTGTT (site AGCCTAGCTAA) | 0.261
AGAAAGGCATGGACCGGTTTTCCCGGTAATCCGTATTTGCT (site AGTAAGGCTAG) | 1.3
GTGCATGCATGGACCGGTTTTCCCGGTAATCCGTATTTGGT (site TTGCATGCTAC) | 0.412

Sequence | recombinant UMI read abundance (log10)
CTGCTACCATGGACCGGTTTTCCCGGTAATCCGTATTTGCT (site CAGCTACCTAG) | 0
AACTCAGCATGGACCGGTTTTCCCGGTAATCCGTATTTGGG (site AACTCAGCTCC) | 0.0924
TAGTATCCATGGACCGGTTTTCCCGGTAATCCGTATTTGCA (site TAGTATCCTTG) | 0.736
CGGAATTCATGGACCGGTTTTCCCGGTAATCCGTATTTGTA (site CGGAATTCTTA) | 2.78
ACGCGTCCATGGACCGGTTTTCCCGGTAATCCGTATTTGTG (site ACGCGTCCTCA) | 0.257
CTGCTACCATGGACCGGTTTTCCCGGTAATCCGTATTTGCT (site CTGCTCCCTAG) | 0.543
GCCACGCCATGGACCGGTTTTCCCGGTAATCCGTATTTGTA (site GCCAGGCCTTA) | 0.013
CGTATACCATGGACCGGTTTTCCCGGTAATCCGTATTTGAA (site CGTATACCTTT) | 0.0161
CTTTTCTCATGGACCGGTTTTCCCGGTAATCCGTATTTGTA (site CTTCTCTCTTA) | 0.274
CGGACGTCATGGACCGGTTTTCCCGGTAATCCGTATTTGCT (site CGGACCTCTAG) | 0
TAAAGTCCATGGACCGGTTTTCCCGGTAATCCGTATTTGTT (site TAAAGTCCTAA) | 0.293
GATTATCCATGGACCGGTTTTCCCGGTAATCCGTATTTGCA (site GATTATCCTTG) | 0
TCCAATTCATGGACCGGTTTTCCCGGTAATCCGTATTTGCC (site TCCAATTCTGG) | 0
AGCCTAGCATGGACCGGTTTTCCCGGTAATCCGTATTTGTC (site AGCCTAGCTGA) | 0
TCAGAGACATGGACCGGTTTTCCCGGTAATCCGTATTTGCA (site TCAGAGACTCG) | 1.34
TGGACACCATGGACCGGTTTTCCCGGTAATCCGTATTTGAC (site TGGACACCTGT) | 0
GGAGTATCATGGACCGGTTTTCCCGGTAATCCGTATTTGAC (site GGAGTATCTGT) | 2.66
AGCCTAGCATGGACCGGTTTTCCCGGTAATCCGTATTTGAT (site AGCCTAGCTAA) | 0.0122
GATTGGACATGGACCGGTTTTCCCGGTAATCCGTATTTGGC (site GATTGGACTGT) | 1.63
CAATGCTCATGGACCGGTTTTCCCGGTAATCCGTATTTGAG (site CAATGCTCTAT) | 1.46
AATCACGCATGGACCGGTTTTCCCGGTAATCCGTATTTGGG (site AATCACGCTCC) | 0.0109
AGAAAGGCATGGACCGGTTTTCCCGGTAATCCGTATTTGCT (site AGAAAGGCTCG) | 1.65
CATTTATCATGGACCGGTTTTCCCGGTAATCCGTATTTGGC (site CATTTATCTGC) | 1.72
AAGCACGCATGGACCGGTTTTCCCGGTAATCCGTATTTGGG (site TAGCACGCTCC) | 0.0044
AGCCTAGCATGGACCGGTTTTCCCGGTAATCCGTATTTGAT (site AGCCTAGCTAC) | 0.0164

Sequence | recombinant UMI read abundance (log10)
GCCACTCCATGGACCGGTTTTCCCGGTAATCCGTATTTGGG (site GCCACTCCTCC) | 0.0141
TAGCCTTCATGGACCGGTTTTCCCGGTAATCCGTATTTGGT (site GAGCCTTCTAC) | 0.0148
GGCATTTCATGGACCGGTTTTCCCGGTAATCCGTATTTGGG (site GGCATTTCTCC) | 0
CTATGCACATGGACCGGTTTTCCCGGTAATCCGTATTTGTA (site ATATGCACTTA) | 0.00544
CATCTGTCATGGACCGGTTTTCCCGGTAATCCGTATTTGAC (site CATCTGTCTGT) | 0
CGAGGACCATGGACCGGTTTTCCCGGTAATCCGTATTTGGC (site CGAGGACCTGC) | 0
AGGAGGACATGGACCGGTTTTCCCGGTAATCCGTATTTGCA (site AGGATGACTTG) | 0
AGTAAGACATGGACCGGTTTTCCCGGTAATCCGTATTTGAA (site AGTAAGACTTT) | 1.27
AGCTCTGCATGGACCGGTTTTCCCGGTAATCCGTATTTGGG (site AGCTCGGCTCC) | 0
CATCACACATGGACCGGTTTTCCCGGTAATCCGTATTTGGG (site CATCACACTCC) | 0.0249
AGTAAGACATGGACCGGTTTTCCCGGTAATCCGTATTTGTC (site AGTAAGACTGA) | 1.36
TTTCTGCCATGGACCGGTTTTCCCGGTAATCCGTATTTGAA (site TTTCTGCCTTT) | 0.00894
ACAGAATCATGGACCGGTTTTCCCGGTAATCCGTATTTGCA (site ACAGCATCTTG) | 2.64
ATCGAGTCATGGACCGGTTTTCCCGGTAATCCGTATTTGTA (site ATCGAGTCTTA) | 3.05
GGTTCATCATGGACCGGTTTTCCCGGTAATCCGTATTTGCT (site CGATCATCTAG) | 0
CCGTTGGCATGGACCGGTTTTCCCGGTAATCCGTATTTGTG (site CCGTTAGCTCA) | 0.661
TCAGAGACATGGACCGGTTTTCCCGGTAATCCGTATTTGCC (site TCAGAGACTAG) | 0.85
CGTATGGCATGGACCGGTTTTCCCGGTAATCCGTATTTGTG (site CGTATGGCTCA) | 1.33
TCCAATTCATGGACCGGTTTTCCCGGTAATCCGTATTTGCC (site TCAAATTCTGG) | 0
ACACATCCATGGACCGGTTTTCCCGGTAATCCGTATTTGAC (site ACACATCCTCT) | 0.265
TAAGATTCATGGACCGGTTTTCCCGGTAATCCGTATTTGTT (site AAAGATTCTAA) | 0
AGGTACCCATGGACCGGTTTTCCCGGTAATCCGTATTTGTG (site AGGTACCCTCA) | 0.0796
ACACCGTCATGGACCGGTTTTCCCGGTAATCCGTATTTGCC (site ACACCGTCTGG) | 3.04
TGGCCGGCATGGACCGGTTTTCCCGGTAATCCGTATTTGGC (site TGGCTGGCTGC) | 0
CAGACGACATGGACCGGTTTTCCCGGTAATCCGTATTTGGG (site CAGACGACTCC) | 0.00735
